Results on 2 compounds are retold here after patent publication EP0986381B1, “USE OF DITERPENES LIKE HYPOESTOXIDES FOR THE MANUFACTURE OF A MEDICAMENT FOR IMMUNOSUPPRESSION, ANTICANCER AND ANTIVIRAL TREATMENT” (Immune Modulation, Inc., priority 1997, dated 1998).

SMILES strings stand for the structures.

Holding throughout (format): cell-based
One data set relates to Mouse spleen cells. Description: LPS-induced murine lymphocyte proliferation in vitro. Particulars: all concentrations tested (1.5 µg/mL-50 µg/mL); LPS 5 µg/ml, 48 hours. On the procedure: LPS is a B-cell mitogen in mice and it is also known to induce pro-inflammatory cytokines such as TNF-α, IL-6 and IL-1β in both murine and human mononuclear cells (Cunningham, A.J., ed; Understanding Immunology 1978;Academic Press, Inc., New York, USA). Murine lymphocytes were stimulated with LPS in vitro in the absence or presence of varying concentrations of JO-4 (1.5, 2.5, 5.0, 10.0, and 50.0 µg/mL).

The test system of data set [1] is human cervical epitheloid carcinoma (HeLa) cells. In words: Colorimetric MTT cytotoxicity assay, HeLa. Particulars: 72 hours, read-out: IC50 (drug concentration capable of inducing 50% cytotoxicity). On the procedure: The following materials and methods were employed in the non-limiting Examples set out below. Tumor cells: Human cervical epitheloid carcinoma (HeLa), human renal clear cell carcinoma (CAKI-1), human malignant melanoma (RPMI-7951) and mouse malignant melanoma (B16-F1) were procured from ATCC (Rockville, MD) and maintained in vitro with MEM medium (Mediatech, Inc., Herndon, VA) supplemented with 10% heat-inactivated fetal bovine serum (American Qualex, San Clemente, CA), 10mM glutamine, 100 U/ml penicillin, and 100 µg/ml streptomycin (Sigma Chemicals, Saint Louis, MO) (complete medium). […] Cell viability was assessed by trypan blue dye exclusion test and the cell number was adjusted to required concentration. Colorimetric MTT assay: Cytotoxic effects of the hypoestoxide compounds of formulas I and II (JO-4A) were determined in vitro by a colorimetric assay (Mosmann, T., J. Immunol. Methods, 65: 55-63, 1983). […] Mixing with a multichannel pipetter dissolved the dark blue crystals and the absorbance was measured at 545-650 nm using an ELISA plate reader. […] The tumors were measured with a microcaliper, and the tumor volume was calculated by the formula: Length x width x height x 0.5236 (Jungwirth, A. et al., Proc. Natl. Acad. Sci. USA, 94:5810-5813, 1997). […]
For orientation: Formazan colour is commonly taken as a measure of viable cells.

The nature of data set [2]: Colorimetric MTT cytotoxicity assay, normal cervical ectoepithelial cells. Particulars: human, crec-ec cells.

For the compound `C=C1C(=O)C[C@H]2C[C@@H]3O[C@@]3(C)CC[C@@H]3O[C@@]3(C)C[C@@H](OC(C)=O)[C@H]1C2(C)C` [JO-4, hypoestoxide], in the data set on Mouse spleen cells, the “inhibition of LPS-induced proliferation of murine lymphocytes” value was “more than 50%”.

With `C=C1C(=O)CC2CC3OC3(C)CCC3OC3(C)CC(O)C1C2(C)C` (stereo not shown) [JO-4A], in data set [1], the IC50 lay within 10 to 12.5 µM. Besides, the cytotoxicity in data set [2] (at the IC50 dose for HeLa (between 10 µM and 12.5 µM), read-out: cytotoxic effect) stood at 6%. For the same compound, in data set [2] (normal cervical ectoepithelial cells, 72 hours, read-out: IC50 (cytotoxicity)), the CC50 at 72 h was above 100 µM.
